Data: patent US8329913B2, “Carbazole derivative, solvate thereof, or pharmaceutically acceptable salt thereof” (Zeria Pharmaceutical Co., Ltd., priority 2004, dated 2012)

Biological target: T1, human PPARα (Homo sapiens, UniProt Q07869)
T1 construct: 1.6 kb of DNA fragment including human PPARα gene was collected from the gel; expressed in transfected cells; host or cells: CV-1 cells, transient transfection with pCI-hPPARa, pCI-hRXRa and the reporter pGL3-PPRE3-TK
T1 sequence (Q07869 1-468): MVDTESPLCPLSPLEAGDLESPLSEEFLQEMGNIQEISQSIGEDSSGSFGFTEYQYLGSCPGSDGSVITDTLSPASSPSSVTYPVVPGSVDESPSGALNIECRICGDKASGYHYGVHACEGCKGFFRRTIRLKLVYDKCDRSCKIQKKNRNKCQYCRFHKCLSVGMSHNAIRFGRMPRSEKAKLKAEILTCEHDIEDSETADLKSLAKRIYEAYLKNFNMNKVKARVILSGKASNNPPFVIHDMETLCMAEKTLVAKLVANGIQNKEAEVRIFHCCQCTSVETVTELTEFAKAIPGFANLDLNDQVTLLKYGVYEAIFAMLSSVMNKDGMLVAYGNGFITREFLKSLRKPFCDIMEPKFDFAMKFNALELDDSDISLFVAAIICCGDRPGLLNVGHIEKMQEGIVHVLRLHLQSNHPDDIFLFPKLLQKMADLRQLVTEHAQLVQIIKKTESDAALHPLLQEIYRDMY
T1 sequence (P19793 1-462 partner): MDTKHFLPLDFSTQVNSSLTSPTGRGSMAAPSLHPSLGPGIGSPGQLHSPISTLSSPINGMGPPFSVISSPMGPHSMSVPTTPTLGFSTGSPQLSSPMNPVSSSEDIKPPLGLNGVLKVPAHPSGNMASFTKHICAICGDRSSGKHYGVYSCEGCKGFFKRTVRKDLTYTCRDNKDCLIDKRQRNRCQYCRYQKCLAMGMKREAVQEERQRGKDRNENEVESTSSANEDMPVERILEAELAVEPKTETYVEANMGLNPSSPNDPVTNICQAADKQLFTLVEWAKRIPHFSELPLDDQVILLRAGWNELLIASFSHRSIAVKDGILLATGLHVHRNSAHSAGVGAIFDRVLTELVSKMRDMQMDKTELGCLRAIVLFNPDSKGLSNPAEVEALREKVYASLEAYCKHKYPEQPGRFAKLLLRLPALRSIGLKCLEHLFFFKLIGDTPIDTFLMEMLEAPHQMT
Experiment: Human PPARα agonist assay (luciferase reporter in transfected CV-1 cells)
Assay type: cell-based
Conditions: at 1 μM test compound alone; 100% = 1 μM stimulant (GW7647) only; CV-1 cells expressing human PPARα and RXRα
Experimental: CV-1 cells (96 well plate), where human PPARα and RXRα has expressed in the transient transfection of reporter plasmid (see reference 6a) were washed once with PBS (100 μL/well), and then supplemented with 100 μL/well of DMEM medium including 10% of fetal bovine serum to which test compounds at final concentrations of 10 nM, 30 nM, 100 nM, 300 nM, 1 μM, and 3 μM, as well as GW7647 (not limited to GW7647 shown as an example, but may be any PPARα agonist) at a final concentration of 1 nM as a stimulant were added, and incubated in a 5% CO2 incubator at 37° C. for 24 hours. After removing the medium, the CV-1 cells were washed once with PBS (100 μL/well), and supplemented with 60 μL/well of 1× Passive Lysis Buffer (manufactured by Promega Corporation). The CV-1 cells were incubated at room temperature for 30 minutes, stirred, and then by using Dual-Luciferase Reporter Assay System (manufactured by Promega Corporation), luciferase activities of firefly and renilla were measured using 1420 ARVO Multilabel Counter (manufactured by Wallac Oy). Also, the same experiments as that described above were respectively carried out for the cases where only the above-mentioned stimulant (10 nM, 100 nM, 1 μM) were used, where only the above-mentioned test compounds were used, or where neither was used (nonsupplemented), and luciferase activities of firefly and renilla were measured. Values corrected by dividing the firefly luciferase activities by the renilla luciferase activities were calculated as specific activities and used for evaluations. […]
Also, human PPARα agonist activities of the test compounds were evaluated by using a percentage (activity) where the specific activity when nonsupplemented is regarded as 0% and the specific activity in case only 1 μM stimulant was added is regarded as 100%, from the specific activity in case only the test compound is used.
CV-1 cells were cultured in DMEM medium (manufactured by Invitrogen Corporation) including 10% fetal bovine serum (manufactured by Dainippon Pharmaceutical Co., Ltd.) in 225T-Flask (manufactured by Corning Costar). The cells were detached by 0.5 g/L trypsin-0.2 g/L EDTA (ethylene diamine tetra-acetic acid) (manufactured by Invitrogen Corporation), and then suspended in the DMEM medium including 10% fetal bovine serum to a cell concentration of 2×10^5 cells/mL. Thereafter, the cells were seeded into 96 well plate at 2×10^4 cells/0.1 mL/well, incubated in the CO2 incubator at 37° C. overnight, and then the plasmids prepared by the above-mentioned reference 2a, reference 3a, and reference 4a were transfected into cells by using a lipofectamine reagent (manufactured by Invitrogen Corporation) according to the attached manual.
Namely, after CV-1 cells were cultured overnight, the cells were washed with PBS (100 μL/well). Thereafter the cells were incubated for 5 hours at 37° C./5% CO2 in the MEM medium (manufactured by Invitrogen Corporation) including 430 ng/mL of human PPARα expression plasmid (pCI-hPPARa) prepared by the reference 2a, 430 ng/mL of human RXRα expression plasmid (pCI-hRXRa) prepared by the reference 3a, and 140 ng/mL of the reporter plasmid (pGL3-PPRE3-TK) prepared by the reference 4a, 10 ng/mL of phRL-TK vector (manufactured by Promega Corporation) and 2 μL/mL of lipofectamine.

Row | SMILES | Human PPARα agonist activities, Activity % (at 1 μM) [%]
1 | COc1cc(Cn2c3ccccc3c3c(OCC(C)(C)C(=O)[O-])cccc32)ccc1OCc1nc(-c2ccccc2)oc1C.[Na+] [Example 34] | 41
2 | COc1cc(Cn2c3ccccc3c3c(OC(C)(C)C(=O)O)cccc32)ccc1OCc1nc(-c2ccncc2)oc1C [Example 9, 2-{9-[3-methoxy-4-((5-methyl-2-(pyridine-4-yl)-oxazole-4-yl)methoxy)-benzyl]-9H-carbazole-4-yloxy}-2-methyl-propionic acid] | 27
